Among the data in patent US9422240B2, “Partially saturated nitrogen-containing heterocyclic compound” (TAISHO PHARMACEUTICAL CO., LTD, priority 2012, dated 2016) are inhibition and IC50 values, retold here.

Experiment [1] addresses T1, human PHD2 (Homo sapiens (Human), UniProt Q9GZT9). Nature of the experiment: Test 1: human PHD2 inhibitory activity, [14C]-2-oxoglutarate to [14C]-succinic acid radiometric assay with HIF-1α peptide. Format: biochemical. As to conditions: test compound's concentration 1 μM; Test 1, [14C]-2-oxoglutarate radiometric assay; read-out: Percent inhibition (% at 1 μM). The method, then: (1) Expression and Preparation of Human PHD2
Human PHD2 was expressed in insect cells (HighFive cells). A registered sequence of human PHD2 (NM_022051) was introduced into the pFastBacl vector (Invitrogen), and the sequence was verified. The vector was introduced into Sf9 insect cells (Invitrogen) to acquire human PHD2 baculovirus. HighFive insect cells (Invitrogen) were infected with this recombinant virus and cultured at 27° C. for 72 hours; thereafter, a cell lysis solution containing various protease inhibitors was added and the cells were disrupted to form a suspension. The suspension of disrupted cells was centrifuged at 4° C. and 100,000×g for 30 minutes and the supernatant was recovered as a cell lysate.
(2) Measurement of Human PHD2 Inhibitory Activity
The activity of human PHD2 enzyme was measured with a substrate which is a 19-residue partial peptide based on the sequence of HIF-1α. Specifically, the conversion of 2-oxoglutarate to succinic acid which would occur simultaneously with the hydroxylation of a proline residue in the peptide with the PHD2 enzyme was utilized. To be more specific, [^14C]-2-oxogiutarate was added to the reaction system to initiate an enzymatic reaction and the [^14C]-2-oxoglutarate remaining after the reaction was bound to 2,4-dinitrophenylhydrazine (DNPH), with the resulting precipitate being removed by passage through a filter. Subsequently, radiation counting was conducted on the resulting [^14C]-succinic acid.
A test compound, HIF-1αpeptide and [^14C]-2-oxoglutarate were preliminarily added onto 96-well plates and reaction was initiated by adding a human PHD2 enzyme solution (4 μg/well). After 15-min incubation at 37° C., a DNPH-containing quench solution was added and the mixture was allowed to stand at room temperature for 30 minutes. Thereafter, an excess of non-radiolabelled 2-oxoglutarate was added and the mixture was allowed to stand at room temperature for 60 minutes. The resulting precipitate was removed by passage through a filter and the radiation count on the [^14C]-succinic acid was quantified (with MicroBeta). Radiation counting was conducted for each well and the human PHD2 inhibitory activity of each test compound was calculated on the basis of the values for the substrate-free group and the test compound-free group.

The target in experiment [2] is T1, human PHD2. The experiment in a line: Test 2: human PHD2 inhibitory activity, fluorescence polarization assay of HIF-1α peptide proline hydroxylation. Format: biochemical. As to conditions: for inhibition at 1 µM: test compound's concentration 1 μM, Test 2, fluorescence polarization assay, read-out: Percent inhibition (% at 1 μM); for IC50: human PHD2, fluorescence polarization assay, 20-min incubation at 30° C. In outline:
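Enzyme from lysate of cells expressing human PHD2 (NM_022051), 40 ng/well, added to compound and 19-residue HIF-1α peptide substrate; 20 min at 30° C., EDTA quench. Prolyl hydroxylation detected by HIF-OH antibody binding via fluorescence polarization; inhibition relative to compound-free wells.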
Background: Polarisation of emitted light reports the rotation of a fluorescent probe.

T1 sequence (Q9GZT9 whole entry): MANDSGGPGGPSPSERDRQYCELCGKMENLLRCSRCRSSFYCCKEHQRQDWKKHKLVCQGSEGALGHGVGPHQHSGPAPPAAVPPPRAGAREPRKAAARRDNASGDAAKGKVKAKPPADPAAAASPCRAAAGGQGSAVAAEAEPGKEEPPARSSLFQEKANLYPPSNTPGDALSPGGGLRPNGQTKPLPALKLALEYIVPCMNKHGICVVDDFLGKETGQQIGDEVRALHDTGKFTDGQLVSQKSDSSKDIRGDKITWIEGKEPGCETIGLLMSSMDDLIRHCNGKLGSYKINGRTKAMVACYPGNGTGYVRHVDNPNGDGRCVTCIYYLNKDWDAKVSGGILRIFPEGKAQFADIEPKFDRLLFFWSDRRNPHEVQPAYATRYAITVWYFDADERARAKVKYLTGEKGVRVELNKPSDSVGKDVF

As a reminder, the inhibition is the relative decrease from the control value, in per cent. With `O=C(O)CNC(=O)C1=C(O)CCN(Cc2ccc(C(F)(F)F)c(F)c2)C1=O` [Ex. 1-113], the values for the inhibition at 1 µM in experiment [1] and in experiment [2] were 79% and 84%, respectively.
Usually IC50 stands for the point on the concentration scale where inhibition reaches its midpoint. In the case of `O=C(O)CNC(=O)C1=C(O)CCN(Cc2ccc(Oc3ccccc3F)cc2)C1=O` [Ex. 1-282], the inhibition at 1 µM in experiment [1] turned out to be 101%. In experiment [2], the IC50 was 77 nM and the inhibition at 1 µM worked out at 99%.
On to `O=C(O)CNC(=O)C1=C(O)CCN(Cc2ccc(Oc3ccc(C4CC4)cc3)nc2)C1=O` [Ex. 1-296], for which the inhibition at 1 µM in experiment [1] amounted to 100%. Moreover, in experiment [2], 15 nM corresponded to half-maximal inhibition (IC50) and the inhibition at 1 µM worked out at 102%.
Consider `O=C(O)CNC(=O)C1=C(O)CCN(Cc2cccc3ccccc23)C1=O` [Ex. 1-33], for which the inhibition at 1 µM in experiment [1] worked out at 72%; in experiment [2], 84%.
Consider `Cc1cc(CN2C(=O)C(C(=O)NCC(=O)O)=C(O)CC2(C)C)ccc1F` [Ex. 1-179], for which the inhibition at 1 µM was 44% in experiment [1] and 49% in experiment [2].
In the case of `O=C(O)CNC(=O)C1=C(O)CC2(CCC2)N(Cc2ccc(Br)cc2)C1=O` [Ex. 1-155], the inhibition at 1 µM in experiment [1] amounted to 82%; in experiment [2] it was 83%.
Consider `O=C(O)CNC(=O)C1=C(O)CCN(Cc2ccc(Oc3ccc(F)cc3)nc2)C1=O` [Ex. 1-252], for which the inhibition at 1 µM in experiment [1] came out at 104%. In addition, in experiment [2], half-maximal inhibition (IC50) required 87 nM and the inhibition at 1 µM was determined as 98%.
For `O=C(O)CNC(=O)C1=C(O)CCN(Cc2ccc(-c3ccc(-c4ccccc4)cc3)cc2)C1=O` [Ex. 2-10], the figures for the inhibition at 1 µM in experiment [1] and in experiment [2] were 84% and 79%, respectively.
As to `O=C(O)CNC(=O)C1=C(O)CCN(Cc2ccc(Oc3ccc(F)cn3)cc2)C1=O` [Ex. 1-288], the inhibition at 1 µM in experiment [1] was determined as 90%. Besides, in experiment [2], inhibition was half-maximal at 146 nM (IC50) and the inhibition at 1 µM is 91%.
`Cc1cccc(-c2ccc(CN3CCC(O)=C(C(=O)NCC(=O)O)C3=O)cc2)c1` [Ex. 2-25]: the inhibition at 1 µM in experiment [1] worked out at 92%; in experiment [2] it was 96%.
The corresponding values for `CC1CC(O)=C(C(=O)NCC(=O)O)C(=O)N1Cc1ccc(-c2ccc(F)cc2)cc1` (stereo not drawn) [Ex. 1-177] are 93% and 92%.
In the same order, the values of `O=C(O)CNC(=O)C1=C(O)CC(Cc2ccccc2)N(Cc2ccc(-c3ccccc3)cc2)C1=O` (stereo not drawn) [Ex. 1-75] are 54% and 84%.
As to `Cc1ccc(CN2C(=O)C(C(=O)NCC(=O)O)=C(O)CC2C)cc1` (stereo not drawn) [Ex. 1-79], the inhibition at 1 µM in experiment [1] stood at 64%; in experiment [2], 71%.
The corresponding values for `O=C(O)CNC(=O)C1=C(O)CCN(Cc2ccc(OC(F)(F)C(F)F)cc2)C1=O` [Ex. 1-136] are 91% and 88%.
As for `CC1CC(O)=C(C(=O)NCC(=O)O)C(=O)N1Cc1ccc(Cl)cc1` (stereo not drawn) [Ex. 1-171], the inhibition at 1 µM in experiment [1] stood at 81%; in experiment [2], 82%.
As for `O=C(O)CNC(=O)C1=C(O)CCN(Cc2ccc(Oc3cccc(F)c3)nc2)C1=O` [Ex. 1-256], the inhibition at 1 µM in experiment [1] stood at 101%. Besides, in experiment [2], the IC50 was determined as 66 nM and the inhibition at 1 µM worked out at 91%.
Take `O=C(O)CNC(=O)C1=C(O)CCN(Cc2ccc3sccc3c2)C1=O` [Ex. 1-270]: the inhibition at 1 µM in experiment [1] turned out to be 88%; in experiment [2], 90%.
As to `CCCOc1ccc(CN2C(=O)C(C(=O)NCC(=O)O)=C(O)CC2(C)C)cc1` [Ex. 1-227], the inhibition at 1 µM in experiment [1] is 76%; in experiment [2], 75%.
With `COc1cccc(Oc2ccc(CN3CCC(O)=C(C(=O)NCC(=O)O)C3=O)cc2)c1` [Ex. 1-286], the values for the inhibition at 1 µM in experiment [1] and in experiment [2] were 95% and 96%, respectively. In experiment [2], this compound displayed a half-inhibitory concentration (IC50) of 61 nM.
As to `O=C(O)CNC(=O)C1=C(O)CCN(Cc2ccc(-c3ccc(O)cc3)cc2)C1=O` [Ex. 2-30], the inhibition at 1 µM came out at 103% in experiment [1] and 99% in experiment [2].
In the same order, the values of `O=C(O)CNC(=O)C1=C(O)C2(CC2)CN(Cc2ccc(OCC3CC3)cc2)C1=O` [Ex. 1-279] are 90% and 91%.
